In patent US20240166649A1, “DIHYDROPYRIMIDINE COMPOUND, PREPARATION METHOD THEREFOR AND APPLICATION THEREOF” (Shanghai Visonpharma Co., Ltd., priority 2021, published 2024):

tested on: HBV (hepatitis B virus) in HepG2.2.15 cells; assay: Cell-based anti-viral activity assay (HBV DNA in supernatant by quantitative PCR); conditions: 120 h, anti-HBV activity, HepG2.2.15 cells, 5 days, read-out: EC50 (HepG2.2.15)
Experimental: Cell-Based Anti-Viral Activity Assay
The Invention determined the anti-HBV (hepatitis B virus) activity of compounds in HepG2.2.15 cells (Table 1).
HepG2.2.15 is a cell line stably transfected with the HBV genome. HepG2.2.15 cells were cultured in DMEM (1X) with 10% fetal bovine serum (Corning), 100 U penicillin (Gibico), 100 μg/mL streptomycin (Gibico), 250 μg/mL geneticin (Gibco) and GlutaMAXTM-I medium (Invitrogen).
HepG2.2.15 cells were seeded into 96-well plates (4×10^4 cells in 100 μL of medium per well) and incubated overnight at 37° C. The test compounds were weighed and prepared as 10 mM stock solution with DMSO. The stock solutions of the compounds were diluted by a gradient of 3.16 times with DMSO, and then diluted by a gradient of 3.16 times with medium for 50 times. Finally, the diluted compound solutions were added to the cell plate with a total volume of 200 μL and the final DMSO concentration was 1%. The 96-well culture plates loaded with drugs were transferred to an incubator at 37° C. for 5 days. […] nucleic acid releasing agent was added to 96-well PCR reaction plate, and 2 μL of cell supernatant or HBV quantitative standards were added to the corresponding Wells. Centrifuged the plates to fully mix, and incubated at room temperature for 10 min to fully release nucleic acid. Quantified HBV DNA content by fluorescent quantitative PCR (CFX Connect Real-Time System) using Sanxiang Bio hepatitis B virus fluorescent quantitative diagnostic kit.
The standard curve was established by taking the logarithm of the copy number (IU/ml) of the HBV standard sample (log 10) as the abscordinate and the corresponding CT value as the ordinate. The copy number of the sample was calculated according to the corresponding CT of the positive sample and the standard curve, and the percentage of inhibition rate was calculated as follows: • % Inhibition=100-100*(sample HBV copy number−high concentration reference compound column HBV copy number)/DMSO column HBV copy number−high concentration reference compound column HBV copy number).

Compared with `CCOC(=O)C1=C(CN2CCN3C(=O)N(C45CC(CC(=O)O)(C4)C5)C[C@@H]3C2)NC(c2nccs2)=N[C@H]1c1ccc(F)cc1C` [Compound 37], `CCOC(=O)C1=C(CN2CCN3C(=O)N(C45CCC(CC(=O)O)(CC4)C5)C[C@@H]3C2)NC(c2nccs2)=N[C@H]1c1ccc(F)cc1C` [Compound 64, 2-(4-((S)-7-(((S)-5-(Ethoxycarbonyl)-6-(4-Fluoro-2-Methylphenyl)-2-(Thiazol-2-Yl)-3,6-Dihydropyrimidin-4-Yl)Methyl)-3-Oxohexahydroimidazo[1,5-a]Pyrazin-2(3H)-Yl)Bicyclo[2.2.1]Heptan-1-Yl)Acetic Acid] is 3.2-fold higher in EC50: 18 nM for the first, 57 nM for the second. The first is the more potent here.

First: CCOC(=O)C1=C(CN2CCN3C(=O)N(C45CC(N6CCCC6=O)(C4)C5)C[C@@H]3C2)NC(c2nccs2)=N[C@H]1c1cccc(F)c1C [Compound 13, Ethyl (S)-4-(3-Fluoro-2-Methylphenyl)-6-(((S)-3-Oxo-2-(3-(2-Oxopyrrolidin-1-Yl)Bicyclo[1.1.1]Pentan-1-Yl) Hexahydroimidazo[1,5-a]Pyrazin-7(1H)-Yl)Methyl)-2-(Thiazol-2-Yl)-1,4-Dihydropyrimidine-5-Carboxylate]
Second: CCOC(=O)C1=C(CN2CCN3C(=O)N(C45CC(CN6CCCC6=O)(C4)C5)C[C@@H]3C2)NC(c2nccs2)=N[C@H]1c1cccc(F)c1C [Compound 25, Ethyl (S)-4-(3-Fluoro-2-Methylphenyl)-6-(((S)-3-Oxo-2-(3-((2-Oxopyrrolidin-1-Yl)Methyl)Bicyclo[1.1.1]Pentan-1-Yl)Hexahydroimidazo[1,5-a]Pyrazin-7(1H)-Yl)Methyl)-2-(Thiazol-2-Yl)-1,4-Dihydropyrimidine-5-Carboxylate]
The EC50 of the first is 4-fold higher: 8 nM for the first, 2 nM for the second.

First: CCOC(=O)C1=C(CN2CCN3C(=O)N(C45CCC(CC(=O)O)(CC4)C5)C[C@@H]3C2)NC(c2nccs2)=N[C@H]1c1cccc(F)c1C [Compound 63, 2-(4-((S)-7-(((S)-5-(Ethoxycarbonyl)-6-(3-Fluoro-2-Methylphenyl)-2-(Thiazol-2-Yl)-3,6-Dihydropyrimidin-4-Yl)Methyl)-3-Oxohexahydroimidazo[1,5-a]Pyrazin-2(3H)-Yl)Bicyclo[2.2.1]Heptan-1-Yl)Acetic Acid]
Second: CCOC(=O)C1=C(CN2CCN3C(=O)N(C45CCC(CC(=O)O)(CC4)C5)C[C@@H]3C2)NC(c2nccs2)=N[C@H]1c1ccc(F)cc1Cl [Compound 65, 2-(4-((S)-7-(((R)-6-(2-Chloro-4-Fluorophenyl)-5-(Ethoxycarbonyl)-2-(Thiazol-2-Yl)-3,6-Dihydropyrimidin-4-Yl)Methyl)-3-Oxohexahydroimidazo[1,5-a]Pyrazin-2(3H)-Yl)Bicyclo[2.2.1]Heptan-1-Yl)Acetic Acid]
The EC50 of the first is 1.6-fold lower: 26 nM for the first, 42 nM for the second.

First: CCOC(=O)C1=C(CN2CCN3C(=O)N(C45CCC(C(=O)O)(CC4)CC5)C[C@@H]3C2)NC(c2nccs2)=N[C@H]1c1ccc(F)c(F)c1C [Compound 54]
Second: COC(=O)C1=C(CN2CCN3C(=O)N(C45CC(CC(=O)O)(C4)C5)C[C@@H]3C2)NC(c2nccs2)=N[C@H]1c1ccc(F)c(F)c1C [Compound 41, 2-(3-((S)-7-(((S)-6-(3,4-Difluoro-2-Methylphenyl)-5-(Methoxycarbonyl)-2-(Thiazol-2-Yl)-3,6-Dihydropyrimidin-4-Yl)Methyl)-3-Oxohexahydroimidazo[1,5-a]Pyrazin-2(3H)-Yl)Bicyclo[1.1.1]Pentan-1-Yl)Acetic Acid]
The EC50 of the first is 2.7-fold lower: 3 nM for the first, 8 nM for the second. The first is the more potent here.

First: CCOC(=O)C1=C(CN2CCN3C(=O)N(C45CC(C(C)(C)C(=O)O)(C4)C5)C[C@@H]3C2)NC(c2nccs2)=N[C@H]1c1cccc(F)c1C [Compound 42]
Second: CCOC(=O)C1=C(CN2CCN3C(=O)N(C45CC(C(O)C(=O)O)(C4)C5)C[C@@H]3C2)NC(c2nccs2)=N[C@H]1c1cccc(F)c1C (stereo partly drawn) [Compound 50, 2-(3-((S)-7-(((S)-5-(Ethoxycarbonyl)-6-(3-Fluoro-2-Methylphenyl)-2-(Thiazol-2-Yl)-3,6-Dihydropyrimidin-4-Yl)Methyl)-3-Oxohexahydroimidazo[1,5-a]Pyrazin-2(3H)-Yl)Bicyclo[1.1.1]Pentan-1-Yl)-2-Hydroxyacetic Acid]
The EC50 of the first is 3.7-fold higher: 11 nM for the first, 3 nM for the second.

`CCOC(=O)C1=C(CN2CCN3C(=O)N(C45CC(C(=O)N6CCOCC6)(C4)C5)C[C@@H]3C2)NC(c2nccs2)=N[C@H]1c1cccc(F)c1C` [Compound 27, Ethyl (S)-4-(3-Fluoro-2-Methylphenyl)-6-(((S)-2-(3-(Morpholine-4-Carbonyl)Bicyclo[1.1.1]Pentan-1-Yl)-3-Oxohexahydroimidazo[1,5-a]Pyrazin-7(1H)-Yl)Methyl)-2-(Thiazol-2-Yl)-1,4-Dihydropyrimidine-5-Carboxylate] and `CCOC(=O)C1=C(CN2CCN3C(=O)N(C45CC(C(=O)N6CCCC6)(C4)C5)C[C@@H]3C2)NC(c2nccs2)=N[C@H]1c1cccc(F)c1C` [Compound 6, Ethyl (S)-4-(3-Fluoro-2-Methylphenyl)-6-(((S)-3-Oxo-2-(3-(Pyrrolidine-1-Carbonyl)Bicyclo[1.1.1]Pentan-1-Yl)Hexahydroimidazo[1,5-a]Pyrazin-7(1H)-Yl)Methyl)-2-(Thiazol-2-Yl)-1,4-Dihydropyrimidine-5-Carboxylate] are within 1.5-fold of each other in EC50: 6 nM for the first, 8 nM for the second.

`CCOC(=O)C1=C(CN2CCN3C(=O)N(C45CC(CC#N)(C4)C5)C[C@@H]3C2)NC(c2nccs2)=N[C@H]1c1cccc(F)c1C` [Compound 20, Ethyl (S)-6-(((S)-2-(3-(Cyanomethyl)Bicyclo[1.1.1]Pentan-1-Yl)-3-Oxohexahydroimidazo[1,5-a]Pyrazin-7 (1H)-Yl)Methyl)-4-(3-Fluoro-2-Methylphenyl)-2-(Thiazol-2-Yl)-1,4-Dihydropyrimidine-5-Carboxylate] and `CCOC(=O)C1=C(CN2CCN3C(=O)N(C45CC(CNC(C)=O)(C4)C5)C[C@@H]3C2)NC(c2nccs2)=N[C@H]1c1cccc(F)c1C` [Compound 15, ethyl (S)-6-(((S)-2-(3-(Acetamidomethyl)Bicyclo[1.1.1]Pentan-1-Yl)-3-Oxohexahydroimidazo[1,5-a]Pyrazin-7(1H)-Yl)Methyl)-4-(3-Fluoro-2-Methylphenyl)-2-(Thiazol-2-Yl)-1,4-Dihydropyrimidine-5-Carboxylate] are within 1.5-fold of each other in EC50: 3 nM for the first, 4 nM for the second.

First: CCOC(=O)C1=C(CN2CCN3C(=O)N(C45CC(CC(C)(C)C(=O)O)(C4)C5)C[C@@H]3C2)NC(c2nccs2)=N[C@H]1c1ccc(F)cc1Cl [Compound 40]
Second: CCOC(=O)C1=C(CN2CCN3C(=O)N(C45CC(CC(=O)O)(C4)C5)C[C@@H]3C2)NC(c2nccs2)=N[C@H]1c1cccc(F)c1Cl [Compound 34, 2-(3-((S)-7-(((R)-6-(2-Chloro-3-Fluorophenyl)-5-(Ethoxycarbonyl)-2-(Thiazol-2-Yl)-3,6-Dihydropyrimidin-4-Yl)Methyl)-3-Oxohexahydroimidazo[1,5-a]Pyrazin-2(3H)-Yl)Bicyclo[1.1.1]Pentan-1-Yl)Acetic Acid]
The EC50 of the first is 1.8-fold lower: 12 nM for the first, 22 nM for the second. The first is the more potent here.

Going from `CCOC(=O)C1=C(CN2CCN3C(=S)N(C45CC(C(=O)O)(C4)C5)C[C@@H]3C2)NC(c2nccs2)=N[C@H]1c1cccc(F)c1C` [Compound 32, 3-((S)-7-(((S)-5-(Ethoxycarbonyl)-6-(3-Fluoro-2-Methylphenyl)-2-(Thiazol-2-Yl)-3,6-Dihydropyrimidin-4-Yl)Methyl)-3-Thioxohexahydroimidazo[1,5-a]Pyrazin-2(3H)-Yl)Bicyclo[1.1.1]Pentane-1-Carb Oxylic Acid] to `CCOC(=O)C1=C(CN2CCN3C(=O)N(C45CC(NS(N)(=O)=O)(C4)C5)C[C@@H]3C2)NC(c2nccs2)=N[C@H]1c1cccc(F)c1C` [Compound 21, Ethyl (S)-4-(3-Fluoro-2-Methylphenyl)-6-(((S)-3-Oxo-2-(3-(Sulfamoylamino)Bicyclo[1.1.1]Pentan-1-Yl)Hexahydroimidazo[1,5-a]Pyrazin-7(1H)-Yl)Methyl)-2-(Thiazol-2-Yl)-1,4-Dihydropyrimidine-5-Carboxylate], the EC50 falls from 30 nM to 15 nM (2-fold). The second is the more potent here.

`COC(=O)C1=C(CN2CCN3C(=O)N(C45CC(CC(=O)O)(C4)C5)C[C@@H]3C2)NC(c2nccs2)=N[C@H]1c1ccc(F)cc1Br` [Compound 39, 2-(3-((S)-7-(((R)-6-(2-Bromo-4-Fluorophenyl)-5-(Methoxycarbonyl)-2-(Thiazol-2-Yl)-3,6-Dihydropyrimidin-4-Yl)Methyl)-3-Oxohexahydroimidazo[1,5-a]Pyrazin-2 (3H)-Yl)Bicyclo[1.1.1]Pentane-1-Yl)Acetic Acid] gave an EC50 of 32 nM.

tested on: not listed separately; assay: Cytotoxicity assay (CellTiter Glo); type: cell-based; conditions: human; HepG2.2.15 cells, five days post treatment
Experimental: The Invention Determined Cytotoxicity of the Compounds Against HepG2.2.15 Cells (Table 2)
HepG2.2.15 cells were seeded into 96-well plates (8000 cells per well) and cell viability was measured by the addition of 60 μL of CellTiter Glo reagent (Promega) five days post treatment with the compounds. Cell plates with CellTiter Glo added were shaken on a plate shaker for 20 min and then the chemiluminescence signal was stabilized at room temperature for 10 min. Chemiluminescence values were read using a microplate reader (Bio-TeK SYNERGY NEO2).
The concentration corresponding to 50% cytotoxicity (CC50) was fitted by graphpad prism software. The cytotoxicity was calculated by the formula: % Cytotoxicity=100−(chemiluminescence value of sample Well −average chemiluminescence value of blank medium column)/(average chemiluminescence value of DMSO column −average chemiluminescence value of blank medium column)*100

Compound `CCOC(=O)C1=C(CN2CCN3C(=O)N(C45CC(CC(=O)O)(C4)C5)C[C@@H]3C2)NC(c2nccs2)=N[C@H]1c1ccc(F)cc1C` [Compound 37] has a CC50 at 5 days greater than 50000 nM.
